The text below walks through data of patent US6599918B2, “Substituted (aminoiminomethyl or aminomethyl) dihydrobenzofurans and benzopyrans” (Aventis Pharmaceuticals Inc., priority 1999, dated 2003).

Counter-ions that a name gives are not always drawn. Where no end group is shown, it is not given here.

Data set [1] concerns neointimal proliferation after vascular injury. The note with it: rabbit carotid artery air-drying injury; cited from earlier work.
For data set [2], the system named is human cultured vascular smooth muscle cells. The note with it: cited from earlier work.
Data set [3] has as its system rat cultured vascular smooth muscle cells. The note with it: cited from earlier work.

On to `CC(C)(C)c1ccc(C(=O)NCCC2COc3ccc(C(=N)N)cc32)cc1` (stereo not shown) (as salt: salt) [Example 1b, 4-tert-Butyl-N-(2-[5-carbamimidoyl-2,3-dihydrobenzofuran-3-yl]ethyl)benzamide], for which the melting point was in the range of 167 to 169 °C.
For the compound `CC(C)(CN)c1ccc(C(=O)NCCC2COc3ccc(C(=N)N)cc32)cc1` (stereo not shown) (as salt: salt) [Example 1c, 4-(2-Amino-1,1-dimethylethyl)-N-(2-[5-carbamimidoyl-2,3-dihydrobenzofuran-3-yl]ethyl)benzamide], the melting point lay within 209 to 210 °C.
With `CC(=N)N1CC[C@H](Oc2ccc([C@H](Cc3ccc4ccc(C(=N)N)cc4c3)C(=O)O)cc2)C1` [DX-9065a], in data set [1], the neointimal proliferation entry is given as “less neointimal proliferation”.
`N=C(N)c1ccc2c(c1)C(CCNC(=O)c1ccc(-c3ccccn3)s1)CO2` (stereo not shown) [Example 1a, 5-(Pyridin-2-yl)-thiophene-2-carboxylic acid (2-[5-carbamimidoyl-2,3-dihydrobenzofuran-3-yl]ethyl)amide] registered a melting point of 54 to 56 °C.
`CCC(C)(C)c1ccc(S(=O)(=O)NCCC2COc3ccc(C(=N)N)cc32)cc1` (stereo not shown) [Example 1aar, 3-{2-[4-(1,1-Dimethylpropyl)benzenesulfonylamino]ethyl}-5-carbamimidoyl-2,3-dihydrobenzofuran] registered a melting point of 52 to 56 °C.
With “TAP: TAP, cited as example that the mitogenic effect of Factor Xa depends on Factor Xa enzymatic activity (YNRLCIKPRDWIDECDSNEGGERAYFRNGKGGCDSFWICPEDHTGADYYSSYRDCFNACI; ends and bridges not checked; cysteine pairing not given here; UniProt P17726 1-60, looked up)”, the “mitogenesis of cultured vascular smooth muscle cells” value in data set [2] and in data set [3] was “inhibited the mitogenesis” each time.
